Species: Rattus norvegicus
Test: DrugMatrix - Regimen: Daily Repeat
Format: toxicity, organism-based, Sprague-Dawley
Set-up: regimen Daily Repeat, gender Male, age 6-8 weeks
Settings: in vivo, sc, route subcutaneous, […]; for ABSOLUTE BASOPHIL / ABSOLUTE EOSINOPHIL / ABSOLUTE LYMPHOCYTE / ABSOLUTE MONOCYTE / ABSOLUTE SEGMENTED NEUTROPHIL / BASOPHIL / EOSINOPHIL / ERYTHROCYTE COUNT / HEMATOCRIT / HEMOGLOBIN / LEUKOCYTE COUNT / LYMPHOCYTE / MEAN CORPUSCULAR HEMOGLOBIN / MEAN CORPUSCULAR HEMOGLOBIN CONCENTRATION / MEAN CORPUSCULAR VOLUME / MONOCYTE / NEUTROPHIL / NUCLEATED RED BLOOD CELLS / PLATELET COUNT: tissue Blood; for ALANINE AMINOTRANSFERASE / ALBUMIN / ALKALINE PHOSPHATASE / ASPARTATE AMINOTRANSFERASE / BLOOD UREA NITROGEN / CARBON DIOXIDE / CHLORIDE / CHOLESTEROL / CREATINE PHOSPHOKINASE / CREATININE / GLUCOSE / LACTATE DEHYDROGENASE / LIPASE / PHOSPHORUS / POTASSIUM / SODIUM / TOTAL BILIRUBIN / TOTAL PROTEIN / URIC ACID: tissue Plasma
[1] = 27 mg/kg, 120 h, dose level Low, time 5 day
[2] = 1200 mg/kg, 72 h, dose level High, time 3 day
[3] = 1200 mg/kg, 120 h, dose level High, time 5 day

Clc1ccc(CSC(Cn2ccnc2)c2ccc(Cl)cc2Cl)cc1 (centres undefined) [SULCONAZOLE]
ABSOLUTE BASOPHIL [1]: 0 CELLS/uL | ABSOLUTE EOSINOPHIL [1]: 176 CELLS/uL | ABSOLUTE LYMPHOCYTE [1]: 10589.67 CELLS/uL | ABSOLUTE MONOCYTE [1]: 178.33 CELLS/uL | ABSOLUTE SEGMENTED NEUTROPHIL [1]: 2489.33 CELLS/uL | BASOPHIL [1]: 0% | EOSINOPHIL [1]: 1.33% | ERYTHROCYTE COUNT [1]: 5.26 x10E6/uL | HEMATOCRIT [1]: 33.93% | HEMOGLOBIN [1]: 13 G/DL | LEUKOCYTE COUNT [1]: 13.43 x10E3/uL | LYMPHOCYTE [1]: 78.33% | MEAN CORPUSCULAR HEMOGLOBIN [1]: 24.73 pg | MEAN CORPUSCULAR HEMOGLOBIN CONCENTRATION [1]: 38.3 G/DL | MEAN CORPUSCULAR VOLUME [1]: 64.6 fL | MONOCYTE [1]: 1.33% | NEUTROPHIL [1]: 19% | NUCLEATED RED BLOOD CELLS [1]: 0 /100WBC | PLATELET COUNT [1]: 1332 x10E3/uL | ALANINE AMINOTRANSFERASE [1]: 56 u/L | ALBUMIN [1]: 3.9 G/DL | ALKALINE PHOSPHATASE [1]: 279.67 u/L | ASPARTATE AMINOTRANSFERASE [1]: 81.67 u/L | BLOOD UREA NITROGEN [1]: 17 mg/dL | CARBON DIOXIDE [1]: 25.33 mmol/L | CHLORIDE [1]: 105.67 MEQ/L | CHOLESTEROL [1]: 64.67 mg/dL | CREATINE PHOSPHOKINASE [1]: 435.33 u/L | CREATININE [1]: 0.16 mg/dL | GLUCOSE [1]: 162.33 mg/dL | LACTATE DEHYDROGENASE [1]: 119.67 u/L | LIPASE [1]: 7.33 u/L | PHOSPHORUS [1]: 14.4 mg/dL | POTASSIUM [1]: 6.46 MEQ/L | SODIUM [1]: 145.43 MEQ/L | TOTAL BILIRUBIN [1]: 0.17 mg/dL | TOTAL PROTEIN [1]: 5.9 G/DL | URIC ACID [1]: 1.63 mg/dL | ABSOLUTE BASOPHIL [2]: 0 CELLS/uL | ABSOLUTE EOSINOPHIL [2]: 83.33 CELLS/uL | ABSOLUTE LYMPHOCYTE [2]: 7163.33 CELLS/uL | ABSOLUTE MONOCYTE [2]: 161.33 CELLS/uL | ABSOLUTE SEGMENTED NEUTROPHIL [2]: 2925.33 CELLS/uL | BASOPHIL [2]: 0% | EOSINOPHIL [2]: 1% | ERYTHROCYTE COUNT [2]: 5.45 x10E6/uL | HEMATOCRIT [2]: 33.7% | HEMOGLOBIN [2]: 12.87 G/DL | LEUKOCYTE COUNT [2]: 10.33 x10E3/uL | LYMPHOCYTE [2]: 68.33% | MEAN CORPUSCULAR HEMOGLOBIN [2]: 23.6 pg | MEAN CORPUSCULAR HEMOGLOBIN CONCENTRATION [2]: 38.2 G/DL | MEAN CORPUSCULAR VOLUME [2]: 61.83 fL | MONOCYTE [2]: 1.67% | NEUTROPHIL [2]: 29% | NUCLEATED RED BLOOD CELLS [2]: 0 /100WBC | PLATELET COUNT [2]: 1327 x10E3/uL | ALANINE AMINOTRANSFERASE [2]: 43 u/L | ALBUMIN [2]: 3.9 G/DL | ALKALINE PHOSPHATASE [2]: 294.67 u/L | ASPARTATE AMINOTRANSFERASE [2]: 79.33 u/L | BLOOD UREA NITROGEN [2]: 14 mg/dL | CARBON DIOXIDE [2]: 30 mmol/L | CHLORIDE [2]: 109 MEQ/L | CHOLESTEROL [2]: 69.33 mg/dL | CREATINE PHOSPHOKINASE [2]: 308.33 u/L | CREATININE [2]: 0.2 mg/dL | GLUCOSE [2]: 133.67 mg/dL | LACTATE DEHYDROGENASE [2]: 112.67 u/L | LIPASE [2]: 8 u/L | PHOSPHORUS [2]: 10.93 mg/dL | POTASSIUM [2]: 6.11 MEQ/L | SODIUM [2]: 149.45 MEQ/L | TOTAL BILIRUBIN [2]: 0.13 mg/dL | TOTAL PROTEIN [2]: 6.27 G/DL | URIC ACID [2]: 0.83 mg/dL | ABSOLUTE BASOPHIL [3]: 0 CELLS/uL | ABSOLUTE EOSINOPHIL [3]: 276.67 CELLS/uL | ABSOLUTE LYMPHOCYTE [3]: 12157 CELLS/uL | ABSOLUTE MONOCYTE [3]: 40.67 CELLS/uL | ABSOLUTE SEGMENTED NEUTROPHIL [3]: 4359 CELLS/uL | BASOPHIL [3]: 0% | EOSINOPHIL [3]: 1.67% | ERYTHROCYTE COUNT [3]: 5.75 x10E6/uL | HEMATOCRIT [3]: 35.17% | HEMOGLOBIN [3]: 13.07 G/DL | LEUKOCYTE COUNT [3]: 16.83 x10E3/uL | LYMPHOCYTE [3]: 72.33% | MEAN CORPUSCULAR HEMOGLOBIN [3]: 22.73 pg | MEAN CORPUSCULAR HEMOGLOBIN CONCENTRATION [3]: 37.2 G/DL | MEAN CORPUSCULAR VOLUME [3]: 61.23 fL | MONOCYTE [3]: 0.33% | NEUTROPHIL [3]: 25.67% | NUCLEATED RED BLOOD CELLS [3]: 0 /100WBC | PLATELET COUNT [3]: 1614.33 x10E3/uL | ALANINE AMINOTRANSFERASE [3]: 39.67 u/L | ALBUMIN [3]: 3.47 G/DL | ALKALINE PHOSPHATASE [3]: 268.67 u/L | ASPARTATE AMINOTRANSFERASE [3]: 76.33 u/L | BLOOD UREA NITROGEN [3]: 16.67 mg/dL | CARBON DIOXIDE [3]: 25 mmol/L | CHLORIDE [3]: 104.33 MEQ/L | CHOLESTEROL [3]: 59.67 mg/dL | CREATINE PHOSPHOKINASE [3]: 355 u/L | CREATININE [3]: 0.23 mg/dL | GLUCOSE [3]: 160.67 mg/dL | LACTATE DEHYDROGENASE [3]: 169.33 u/L | LIPASE [3]: 7.33 u/L | PHOSPHORUS [3]: 12.67 mg/dL | POTASSIUM [3]: 6.48 MEQ/L | SODIUM [3]: 144.93 MEQ/L | TOTAL BILIRUBIN [3]: 0.13 mg/dL | TOTAL PROTEIN [3]: 6.1 G/DL | URIC ACID [3]: 2.87 mg/dL
